Consider 15 compounds from patent publication US11945798B2, “Substituted aminopyridine compounds as EGFR inhibitors” (YUHAN CORPORATION, priority 2021, dated 2024).

One assay addresses EGFR del19/T790M/C797S (Homo sapiens, UniProt P00533, C797S/DEL746-750/T790M). Briefly: Biochemical EGFR kinase assay (Lance Ultra TR-FRET), del19/T790M/C797S. As for the experimental part:
(§1) Biochemical EGFR kinase assays were conducted using Lance Ultra time-resolved fluorescence resonance energy transfer (TR-FRET) technology from Perkin-Elmer. Compounds of the invention were initially diluted to 20 mM in 100% DMSO for storage and made into kinase buffer solution to create a compound concentration ranging from 0.003 μM and 10 μM.
(§2) Each kinase reactions were incubated at room temperature for 1 hour and then stopped by the addition of 4 μL of stop solution (10 mM EDTA). The specific Europium-labeled-anti-phosphopeptide antibody (PerkinElmer, AD0069) diluted in LANCE detection buffer was then added to a final concentration of 2 nM. After 60 minutes incubation at room temperature the LANCE signal was measured on an EnVision Multilabel Reader (Perkin-Elmer). Excitation wavelength was set at 320 nm and emission monitored at 615 nm (donor) and 665 nm (acceptor). The IC50 values were determined using GraphPad prism software (GraphPad Software, Inc., San Diego, CA, USA).
Background: TR-FRET usually uses a lanthanide donor and a delayed reading to cut background.

Another assay deals with EGFR L858R/T790M/C797S (Homo sapiens, UniProt P00533, C797S/L858R/T790M). Briefly: Biochemical EGFR kinase assay (Lance Ultra TR-FRET), L858R/T790M/C797S. As to the method:
as §1, §2

For the next assay, the target named is EGFR del19/C797S (Homo sapiens, UniProt P00533, C797S/DEL746-750). Briefly: Biochemical EGFR kinase assay (Lance Ultra TR-FRET), del19/C797S. As to the method: as §1, §2
For the next assay, the target named is EGFR L858R/C797S (Homo sapiens, UniProt P00533, C797S/L858R). In words: Biochemical EGFR kinase assay (Lance Ultra TR-FRET), L858R/C797S. As to the method: as §1, §2
The next assay deals with EGFR wildtype (WT) (Homo sapiens, UniProt P00533). Briefly: Biochemical EGFR kinase assay (Lance Ultra TR-FRET), wildtype. As for the experimental part: as §1, §2
[1] abbreviates: IC50 del19/T790M/C797S (nM) 100 μM ATP, 100 μM ATP.
[2] abbreviates: IC50 L858R/T790M/C797S (nM) 100 μM ATP, 100 μM ATP.
Setting [3] is: IC50 del19/C797S (nM) 100 μM ATP, 100 μM ATP.
The mark [4] stands for this setting: IC50 L858R/C797S (nM) 100 μM ATP, 100 μM ATP.
Setting [5] is: IC50 WT (nM) 100 μM ATP, 100 μM ATP.
Setting [6] is: read-out: IC50 del19/C797S (nM) 100 μM ATP, 100 μM ATP.
[7] abbreviates: read-out: IC50 L858R/C797S (nM) 100 μM ATP, 100 μM ATP.
Where [8] appears, read: read-out: IC50 WT (nM) 100 μM ATP, 100 μM ATP.
[9] abbreviates: Km ATP, read-out: IC50 L858R/T790M/C797S (nM) Km ATP.
Where [10] appears, read: Km ATP, read-out: IC50 del19/C797S (nM) Km ATP.
Where [11] appears, read: Km ATP, read-out: IC50 L858R/C797S (nM) Km ATP.
[12] abbreviates: Km ATP, read-out: IC50 WT (nM) Km ATP.
Where [13] appears, read: Km ATP, read-out: IC50 del19/T790M/C797S (nM) Km ATP.

Read-outs that look alike come from different tables or passages of the source.

As for `O=C(N[C@H]1CC[C@H](O)CC1)c1cnc(Nc2ccnc(-c3cnn(S(=O)(=O)C4CC4)c3)n2)cc1N[C@H]1CC[C@@H](NCCF)CC1` [Example 80, 6-((2-(1-(Cyclopropylsulfonyl)-1H-pyrazol-4-yl)pyrimidin-4-yl)amino)-4-(((1s,4s)-4-((2-fluoroethyl)amino)cyclohexyl)amino)-N-((1r,4r)-4-hydroxycyclohexyl)nicotinamide], the IC50 was 0.8 nM at EGFR del19/T790M/C797S (setting [1]); 2.4 nM at EGFR L858R/T790M/C797S (setting [2]); 72.8 nM against EGFR del19/C797S (setting [3]); 170 nM at EGFR L858R/C797S (setting [4]); greater than 10000 nM against EGFR wildtype (WT) (setting [5]).
As for “6-((2-(1-(Cyclopropylsulfonyl)-1H-pyrazol-4-yl)pyrimidin-4-yl)amino)-N-(2-fluoroethyl)-4-(((1R,3S)-3-(hydroxymethyl)cyclopentyl)amino)nicotinamide [Example 75]”, the IC50 at EGFR del19/T790M/C797S (read-out: IC50 del19/T790M/C797S (nM) 100 μM ATP, 100 μM ATP) is 0.7 nM; on EGFR del19/C797S (setting [6]), 14.5 nM; on EGFR L858R/C797S (setting [7]), 30.5 nM; on EGFR wildtype (WT) (setting [8]) it was greater than 10000 nM.
With `CC(C)(O)[C@H]1CC[C@@H](Nc2cc(Nc3ccnc(-c4cnn(S(=O)(=O)C5CC5)c4)n3)ncc2C(=O)C(F)F)CC1` [Example 50, 1-(6-((2-(1-(Cyclopropylsulfonyl)-1H-pyrazol-4-yl)pyrimidin-4-yl)amino)-4-(((1s,4s)-4-(2-hydroxypropan-2-yl)cyclohexyl)amino)pyridin-3-yl)-2,2-difluoroethan-1-one], the IC50 on EGFR L858R/T790M/C797S (setting [2]) is 6.9 nM; at EGFR L858R/T790M/C797S (setting [9]) it was 1.1 nM; at EGFR del19/C797S (setting [3]), 8.8 nM; on EGFR del19/C797S (setting [10]), 17.2 nM; at EGFR L858R/C797S (setting [4]) it was 157 nM; on EGFR L858R/C797S (setting [11]), 42.8 nM. Moreover, the IC50 against EGFR wildtype (WT) (setting [5]) was greater than 10000 nM; on EGFR wildtype (WT) (setting [12]) it was 1170 nM.
In the case of `CN(C)C[C@H]1CC[C@H](CNc2cc(Nc3ccnc(-c4cnn(C5CC5)c4)n3)ncc2C(=O)C2CC2)CC1` [Example 60, Cyclopropyl(6-((2-(1-cyclopropyl-1H-pyrazol-4-yl)pyrimidin-4-yl)amino)-4-((((1r,4r)-4-((dimethylamino)methyl)cyclohexyl)methyl)amino)pyridin-3-yl)methanone], the IC50 worked out at 5.4 nM on EGFR del19/T790M/C797S (setting [13]), 3.5 nM at EGFR L858R/T790M/C797S (setting [9]), 115 nM on EGFR L858R/C797S (setting [11]) and 430 nM at EGFR wildtype (WT) (setting [12]).
Consider “Cyclopropyl(6-((2-(1-(cyclopropylsulfonyl)-1H-pyrazol-4-yl)pyrimidin-4-yl)amino)-4-((4-((4-methylpiperazin-1-yl)amino)cyclohexyl)amino)pyridin-3-yl)methanone [Example 54]”, for which the IC50 was 66.1 nM at EGFR del19/C797S (setting [6]), 33.8 nM on EGFR L858R/C797S (setting [7]) and greater than 10000 nM on EGFR wildtype (WT) (setting [8]).
`O=C(c1cnc(Nc2ccnc(-c3cnn(S(=O)(=O)C4CC4)c3)n2)cc1N[C@H]1CC[C@@H](NCCF)CC1)C(F)F` [Example 51, 1-(6-((2-(1-(Cyclopropylsulfonyl)-1H-pyrazol-4-yl)pyrimidin-4-yl)amino)-4-(((1s,4s)-4-((2-fluoroethyl)amino)cyclohexyl)amino)pyridin-3-yl)-2,2-difluoroethan-1-one]: the IC50 against EGFR L858R/T790M/C797S (setting [2]) was 4.5 nM; at EGFR L858R/T790M/C797S (setting [9]), 1.1 nM; at EGFR del19/C797S (setting [3]), 18.9 nM; on EGFR del19/C797S (setting [10]) it was 45.4 nM; against EGFR L858R/C797S (setting [4]), 407 nM; at EGFR L858R/C797S (setting [11]), 47.1 nM. Also, the results for the IC50 at EGFR wildtype (WT) (setting [5]) and at EGFR wildtype (WT) (setting [12]) were greater than 10000 nM and 1240 nM, respectively.
On to `CC(NCC1CCC(CNc2cc(Nc3ccnc(-c4cnn(S(=O)(=O)C5CC5)c4)n3)ncc2C(=O)C2CC2)CC1)C(F)F` (stereo not shown) [Example 73, Cyclopropyl(6-((2-(1-(cyclopropylsulfonyl)-1H-pyrazol-4-yl)pyrimidin-4-yl)amino)-4-((((1r,4r)-4-(((1,1-difluoropropan-2-yl)amino)methyl)cyclohexyl)methyl)amino)pyridin-3-yl)methanone], for which the IC50 worked out at 17.4 nM at EGFR del19/T790M/C797S (setting [13]), 3.1 nM on EGFR L858R/T790M/C797S (setting [9]), 16.1 nM on EGFR del19/C797S (setting [10]) and 691 nM at EGFR wildtype (WT) (setting [12]).
On to `CN(C)C[C@H]1CC[C@H](CNc2cc(Nc3ccnc(-c4cnn(CC5CC5)c4)n3)ncc2C(=O)C2CC2)CC1` [Example 61, Cyclopropyl(6-((2-(1-(cyclopropylmethyl)-1H-pyrazol-4-yl)pyrimidin-4-yl)amino)-4-((((1r,4r)-4-((dimethylamino)methyl)cyclohexyl)methyl)amino)pyridin-3-yl)methanone], for which the values for the IC50 on EGFR del19/T790M/C797S (setting [13]), on EGFR L858R/C797S (setting [11]) and on EGFR wildtype (WT) (setting [12]) were 5.7 nM, 123 nM and 415 nM, respectively.
Regarding `CC(C)Nc1cc(Nc2ccnc(-c3cnn(S(=O)(=O)C4CC4)c3)n2)ncc1C1=CCCCO1` [Example 84, N^2-(2-(1-(Cyclopropylsulfonyl)-1H-pyrazol-4-yl)pyrimidin-4-yl)-5-(3,4-dihydro-2H-pyran-6-yl)-N^4-isopropylpyridine-2,4-diamine], the IC50 is 4.5 nM against EGFR del19/T790M/C797S (setting [1]), 107 nM at EGFR del19/C797S (setting [3]), 523 nM on EGFR L858R/C797S (setting [4]) and greater than 10000 nM against EGFR wildtype (WT) (setting [5]).
As to `C[C@@H](O)CCNc1cc(Nc2ccnc(-c3cnn(S(=O)(=O)C4CC4)c3)n2)ncc1C(=O)C1CC1` [Example 11, (R)-Cyclopropyl(6-((2-(1-(cyclopropylsulfonyl)-1H-pyrazol-4-yl)pyrimidin-4-yl)amino)-4-((3-hydroxybutyl)amino)pyridin-3-yl)methanone], the IC50 on EGFR del19/T790M/C797S (setting [13]) stood at 0.4 nM; on EGFR L858R/T790M/C797S (setting [9]), 2.3 nM; at EGFR del19/C797S (setting [10]), 58.9 nM; at EGFR wildtype (WT) (setting [12]), 188 nM.
Regarding `CC(C)C(=O)NC[C@H]1CC[C@H](CNc2cc(Nc3ccnc(-c4cnn(S(=O)(=O)C5CC5)c4)n3)ncc2C(=O)C2CC2)CC1` [Example 72, N-(((1r,4r)-4-(((5-(Cyclopropanecarbonyl)-2-((2-(1-(cyclopropylsulfonyl)-1H-pyrazol-4-yl)pyrimidin-4-yl)amino)pyridin-4-yl)amino)methyl)cyclohexyl)methyl)isobutyramide], the IC50 worked out at 1 nM on EGFR del19/T790M/C797S (setting [13]), 7.2 nM at EGFR del19/C797S (setting [10]), 45.8 nM at EGFR L858R/C797S (setting [11]) and 2040 nM at EGFR wildtype (WT) (setting [12]).
Regarding `O=C(c1cnc(Nc2ccnc(-c3cnn(S(=O)(=O)C4CC4)c3)n2)cc1N[C@H]1CC[C@H](O)C1)C1CC1` [Example 24, Cyclopropyl(6-((2-(1-(cyclopropylsulfonyl)-1H-pyrazol-4-yl)pyrimidin-4-yl)amino)-4-(((1S,3S)-3-hydroxycyclopentyl)amino)pyridin-3-yl)methanone], the IC50 against EGFR L858R/T790M/C797S (setting [2]) was 4.4 nM; against EGFR del19/C797S (setting [3]), 70.9 nM; against EGFR L858R/C797S (setting [4]) it was 79.1 nM; against EGFR wildtype (WT) (setting [5]) it was greater than 10000 nM.
In the case of `CC(=O)c1cnc(Nc2ccnc(-c3cnn(S(=O)(=O)C4CC4)c3)n2)cc1OC[C@H]1CC[C@H](CN(C)C)CC1` [Example 65, 1-(6-((2-(1-(Cyclopropylsulfonyl)-1H-pyrazol-4-yl)pyrimidin-4-yl)amino)-4-(((1r,4r)-4-((dimethylamino)methyl)cyclohexyl)methoxy)pyridin-3-yl)ethan-1-one], the IC50 is 0.7 nM on EGFR del19/T790M/C797S (setting [13]), 5.8 nM on EGFR L858R/T790M/C797S (setting [9]), 52.5 nM at EGFR del19/C797S (setting [10]) and 389 nM at EGFR wildtype (WT) (setting [12]).
Take `CN(C)CCNC1CCC(Nc2cc(Nc3ccnc(-c4cnn(S(=O)(=O)C5CC5)c4)n3)ncc2C(=O)C2CC2)CC1` (stereo not shown) [Example 53, Cyclopropyl(6-((2-(1-(cyclopropylsulfonyl)-1H-pyrazol-4-yl)pyrimidin-4-yl)amino)-4-((4-((2-(dimethylamino)ethyl)amino)cyclohexyl)amino)pyridin-3-yl)methanone]: the IC50 against EGFR del19/T790M/C797S (setting [1]) came to 0.5 nM; on EGFR L858R/T790M/C797S (setting [2]), 0.5 nM; on EGFR del19/C797S (setting [3]), 1.8 nM; against EGFR wildtype (WT) (setting [5]), 1900 nM.
Take `CC(C)Nc1cc(Nc2ccnc(-c3cnn(S(=O)(=O)C4CC4)c3)n2)ncc1F` [Example 41, N^2-(2-(1-(Cyclopropylsulfonyl)-1H-pyrazol-4-yl)pyrimidin-4-yl)-5-fluoro-N^4-isopropylpyridine-2,4-diamine]: the IC50 at EGFR L858R/T790M/C797S (setting [9]) turned out to be 5.6 nM; at EGFR del19/C797S (setting [10]), 47.7 nM; at EGFR L858R/C797S (setting [11]) it was 444 nM; at EGFR wildtype (WT) (setting [12]), 145 nM.
